Series [1] deals with respiratory syncytial virus (RSV) strain Long. As to the kind of experiment: microbe, parasite or virus in culture. As to conditions: human respiratory syncytial virus, HEp-2, 144 h.
Series [2] in a line: cytotoxicity assay (percent viability of HEp-2 cells, Cell Titer-Glo). The following applies: human, HEp-2 cells. (In general: In ATP-based viability assays light output follows the ATP content of the culture.)

Converted amounts (≈) assume the structure as drawn.

On to `Cc1nc(Nc2ccccc2Cl)sc1C(=O)Nc1ccccc1` [AB00299380], for which the EC50 in series [1] stood at 10.4 µg/mL (≈ 30.3 µM). Also, the CC50 at 6 days in series [2] is more than 25 µg/mL.

For `O=C(Nc1ccc(F)c(Cl)c1)C1CCN(C(=O)c2ccc(Cl)cc2)CC1` [AB00299386], the EC50 in series [1] was found to be 12.3 µg/mL (≈ 31.2 µM). Also, the CC50 at 6 days in series [2] was more than 25 µg/mL.

Take `COc1ccc(C(=O)N2CCC(C(=O)Nc3cccc(Br)c3)CC2)cc1` [AB00299547]: in series [1], the EC50 worked out at 18.1 µg/mL (≈ 43.3 µM). Moreover, the CC50 at 6 days in series [2] is more than 25 µg/mL.

The molecule `C=CCNC(=O)COc1ccc(Br)cc1C` [AB00299924] yielded an EC50 in series [1] of 22.4 µg/mL (≈ 78.9 µM). Also, the CC50 at 6 days in series [2] was more than 25 µg/mL.

For the molecule `O=C(O)c1ccc(NC(=S)NC(=O)c2ccc(-c3ccc(Br)cc3)o2)cc1` [AB00301183], the EC50 in series [1] worked out at 22.6 µg/mL (≈ 50.9 µM). This molecule came in with a CC50 at 6 days in series [2] of more than 25 µg/mL.

Regarding `COc1ccccc1C(=O)N(CCCCN1C(=O)c2ccccc2C1=O)c1ccc(Cl)cc1` [AB00301352], the EC50 in series [1] was determined as 21.1 µg/mL (≈ 45.5 µM). Besides, the CC50 at 6 days in series [2] was more than 25 µg/mL.

Regarding `O=C1c2ccccc2C(=O)N1CCCCN(C(=O)c1ccccc1[N+](=O)[O-])c1ccc(Cl)cc1` [AB00301378], in series [1], it took 17.8 µg/mL (≈ 37.2 µM) to reach a half-maximal effect (EC50). The molecule also registered a CC50 at 6 days in series [2] of more than 25 µg/mL.

Regarding `Cc1ccc(N(CCCCN2C(=O)c3ccccc3C2=O)C(=O)c2cccc(C)c2)cc1` [AB00302020], in series [1], the midpoint of the response, the EC50, lay at 15.1 µg/mL (≈ 35.5 µM). The molecule also had a CC50 at 6 days in series [2] of more than 25 µg/mL.

For `COCCNC(=O)Nc1ccc2nc(-c3cccs3)c(-c3cccs3)nc2c1` [AB00302454], the EC50 in series [1] turned out to be 15.3 µg/mL (≈ 37.4 µM). Besides, in series [2], the CC50 at 6 days was more than 25 µg/mL.

In turn, `COC(=O)c1ccc(NC(=O)c2ccc(C)c(Br)c2)cc1` [AB00302921] yielded an EC50 in series [1] of 20.3 µg/mL (≈ 58.2 µM). In series [2], this molecule displayed a CC50 at 6 days of more than 25 µg/mL.

For the molecule `O=S1(=O)N=C(Nc2ccc3c4c(cccc24)CC3)c2ccccc21` [AB00304418], it took 10.7 µg/mL (≈ 32.1 µM) to reach a half-maximal effect in series [1] (EC50). The CC50 at 6 days in series [2] was more than 25 µg/mL.

With `Cc1sc(NC(=O)CCc2ccccc2)c(C(=O)O)c1C` [AB00304690], the response in series [1] was half-maximal at 13.2 µg/mL (≈ 43.5 µM) (EC50). The molecule further gave a CC50 at 6 days in series [2] of more than 25 µg/mL.

With `Cc1cccc(C(=O)Nc2cc(C(C)C)c(O)cc2C)c1` [AB00305611], in series [1], the EC50 is 17.1 µg/mL (≈ 60.3 µM). This molecule also showed a cytotoxic concentration (CC50) at 6 days in series [2] of more than 25 µg/mL.

In series [1], `c1ccc(-c2cc3c(N4CCN(c5ccccc5)CC4)ncnc3s2)cc1` [AB00306917] returned an EC50 of 17.3 µg/mL (≈ 46.5 µM). In series [2], this molecule showed a 50% cytotoxic concentration (CC50) at 6 days of more than 25 µg/mL.

`O=C1c2ccccc2C(=O)N1CCc1nc2ccccc2c(=O)n1-c1cc(Cl)ccc1Cl` [AB00307079] gave an EC50 in series [1] of 14.3 µg/mL (≈ 30.9 µM). The CC50 at 6 days in series [2] is more than 25 µg/mL.

On to `COc1ccc(CN2C(=O)CC(Cc3ccccc3)C2=O)cc1` (stereo not drawn) [AB00307412], for which, in series [1], a half-maximal response (EC50) required 21.1 µg/mL (≈ 68.3 µM). Further, in series [2], the CC50 at 6 days was more than 25 µg/mL.

In turn, `Cn1c(SCCc2ccccc2)nnc1-c1cccc([N+](=O)[O-])c1` [AB00309238] had an EC50 in series [1] of 20.3 µg/mL (≈ 59.6 µM). Moreover, in series [2], the CC50 at 6 days is more than 25 µg/mL.

With `COc1ccc2cc(Br)ccc2c1CO` [AB00309550], the EC50 in series [1] is 16.3 µg/mL (≈ 61.1 µM). Also, in series [2], the CC50 at 6 days was more than 25 µg/mL.

Turning to `CCOc1ccccc1-c1cc(C(=O)O)c2cc(Br)ccc2n1` [AB00309817], a half-maximal effect in series [1] (EC50) was put at 14.3 µg/mL (≈ 38.6 µM). Moreover, the half-maximal cytotoxic concentration (CC50) at 6 days in series [2] is more than 25 µg/mL.

As to `O=C(c1ccc(Cl)cc1Cl)N1CCCN(C(=O)c2ccc(Cl)cc2Cl)CC1` [AB00309842], the EC50 in series [1] worked out at 12.3 µg/mL (≈ 27.6 µM). In series [2], this molecule had a CC50 at 6 days of more than 25 µg/mL.

In turn, `COC(=O)c1c(-c2ccc(C)c(C)c2)csc1NC(=O)CCCC(=O)O` [AB00309859] gave an EC50 in series [1] of 6.84 µg/mL (≈ 18.2 µM). This molecule gave a CC50 at 6 days in series [2] of more than 25 µg/mL.

With `COc1ccc(C(=O)NCCc2cccc(Cl)c2)c(OC)c1` [AB00310156], the EC50 in series [1] came out at 10.4 µg/mL (≈ 32.5 µM). In series [2], this molecule showed a CC50 at 6 days of more than 25 µg/mL.

In series [1], `COC(=O)c1c(-c2ccc(C)cc2)csc1NC(=O)c1ccccc1Br` [AB00310224] showed an EC50 of 24.5 µg/mL (≈ 56.8 µM). Further, the CC50 at 6 days in series [2] was more than 25 µg/mL.

In turn, `O=C(c1ccccc1C(=O)N1CCc2ccccc2C1)N1CCc2ccccc2C1` [AB00310729] showed an EC50 in series [1] of 14.1 µg/mL (≈ 35.6 µM). Besides, the half-maximal cytotoxic concentration (CC50) at 6 days in series [2] was more than 25 µg/mL.

Molecule `CCC(C)N(C(=O)c1cc(Cl)ccc1OC)C(C)CC` (stereo not drawn) [AB00310767] registered an EC50 in series [1] of 15 µg/mL (≈ 50.5 µM). Further, the CC50 at 6 days in series [2] was more than 25 µg/mL.

Regarding `CCC(=O)Nc1ccc(-c2csc(N)n2)cc1` [AB00310808], the EC50 in series [1] amounted to 23.6 µg/mL (≈ 95.6 µM). Further, the half-maximal cytotoxic concentration (CC50) at 6 days in series [2] is more than 25 µg/mL.

Take `O=C(Nc1ccccc1Br)c1cnccn1` [AB00310846]: a half-maximal response in series [1] (EC50) required 19.6 µg/mL (≈ 70.5 µM). The molecule further gave a CC50 at 6 days in series [2] of more than 25 µg/mL.

For `COC(=O)c1c(-c2ccccc2)csc1NC(=O)c1c(-c2ccccc2)noc1C` [AB00310910], the EC50 in series [1] turned out to be 1.15 µg/mL (≈ 2.75 µM). Moreover, the half-maximal cytotoxic concentration (CC50) at 6 days in series [2] is more than 25 µg/mL.

For the molecule `Nc1ccc2oc(-c3cc(F)c(F)cc3Cl)nc2c1` [AB00311411], the EC50 in series [1] is 22.7 µg/mL (≈ 80.9 µM). Besides, the CC50 at 6 days in series [2] was more than 25 µg/mL.

On to `CCc1c(C)sc(NC(=O)c2ccc(C)o2)c1C(N)=O` [AB00313012], for which a half-maximal effect in series [1] (EC50) was put at 18 µg/mL (≈ 61.5 µM). The CC50 at 6 days in series [2] is more than 25 µg/mL.

`Cc1cccc(C)c1NC(=O)c1cccc(C(=O)Nc2c(C)cccc2C)n1` [AB00313091]: the EC50 in series [1] worked out at 19.5 µg/mL (≈ 52.1 µM). Further, the CC50 at 6 days in series [2] was more than 25 µg/mL.

With `COc1ccc(-c2cc(C(=O)O)c3cc(Br)ccc3n2)c(OC)c1` [AB00313218], in series [1], the EC50 is 22.2 µg/mL (≈ 57.1 µM). In addition, in series [2], the CC50 at 6 days is more than 25 µg/mL.

In series [1], `NC(=O)c1c(NC(=O)Nc2cccc(Cl)c2)sc2c1CCCC2` [AB00313952] displayed an EC50 of 2.72 µg/mL (≈ 7.77 µM). The molecule also returned a 50% cytotoxic concentration (CC50) at 6 days in series [2] of more than 25 µg/mL.

Consider `CC(Oc1ccc(Cl)cc1Cl)C(=O)Nc1ccc(F)c(F)c1` (stereo not drawn) [AB00314248], for which it took 23.8 µg/mL (≈ 68.8 µM) to reach a half-maximal effect in series [1] (EC50). The same molecule gave a CC50 at 6 days in series [2] of more than 25 µg/mL.

In series [1], `COC(=O)Nc1ccc2ccccc2c1` [AB00314279] registered a 50% effective concentration (EC50) of 23.5 µg/mL (≈ 117 µM). Also, the CC50 at 6 days in series [2] was more than 25 µg/mL.

Consider `C=CCNc1cc(N2CCN(C(=O)c3ccc(Cl)cc3)CC2)ccc1[N+](=O)[O-]` [AB00315446], for which the EC50 in series [1] was 12 µg/mL (≈ 29.9 µM). This molecule returned a CC50 at 6 days in series [2] of more than 25 µg/mL.

For `Cc1cc(C)cc(OCC(=O)N2CCc3ccccc3C2)c1` [AB00315731], the EC50 in series [1] amounted to 21.1 µg/mL (≈ 71.3 µM). The CC50 at 6 days in series [2] is more than 25 µg/mL.

In series [1], `O=C(CCN1C(=O)c2cccc3cccc(c23)C1=O)N1CCc2ccccc2C1` [AB00315918] came in with an EC50 of 15.4 µg/mL (≈ 40 µM). In series [2], this molecule showed a CC50 at 6 days of more than 25 µg/mL.

In turn, `Cc1cccc(NCc2cc(Cl)ccc2O)n1` [AB00317095] gave an EC50 in series [1] of 24.3 µg/mL (≈ 97.8 µM). The CC50 at 6 days in series [2] was more than 25 µg/mL.

`CCOc1ccc(-c2nnc(Nc3ccc(OC)c(C(=O)NC)c3)c3ccccc23)cc1` [AB00317165] gave an EC50 in series [1] of 19.5 µg/mL (≈ 45.4 µM). This molecule came in with a cytotoxic concentration (CC50) at 6 days in series [2] of more than 25 µg/mL.

`O=C(Nc1cccc(Br)c1)C1CCN(C(=O)c2ccc([N+](=O)[O-])cc2)CC1` [AB00317214] registered an EC50 in series [1] of 12.4 µg/mL (≈ 28.6 µM). The molecule also returned a CC50 at 6 days in series [2] of more than 25 µg/mL.

Take `CC(C)(C)c1ccc(C(=O)N2CCC(C(=O)Nc3ccc4c(c3)OCO4)CC2)cc1` [AB00317272]: the EC50 in series [1] worked out at 22.3 µg/mL (≈ 54.5 µM). The molecule also had a CC50 at 6 days in series [2] of more than 25 µg/mL.

In series [1], `CCCCC(=O)Nc1cccc(NC(=O)c2ccccc2OC)c1` [AB00317410] registered an EC50 of 22.8 µg/mL (≈ 70 µM). In series [2], this molecule displayed a CC50 at 6 days of more than 25 µg/mL.

Take `CC(C)(C)c1ccc(C(=O)N2CCC(C(=O)Nc3ccccc3Cl)CC2)cc1` [AB00317604]: a half-maximal effect in series [1] (EC50) was put at 23.7 µg/mL (≈ 59.4 µM). For the same molecule, the CC50 at 6 days in series [2] was more than 25 µg/mL.

With `CCOc1cc(C2CC(=O)Nc3c2ccc2ccccc32)cc(Cl)c1O` (stereo not drawn) [AB00317685], in series [1], the EC50 worked out at 20.9 µg/mL (≈ 56.8 µM). In series [2], this molecule registered a CC50 at 6 days of more than 25 µg/mL.

One may read the EC50 as the concentration needed to bring the measured effect to its halfway point. A high value points to a less potent agent. One may read the CC50 as the concentration giving 50% cytotoxicity. Low values mean harm at low concentration, high ones better tolerance by the cells.

The values are drawn from patent publication US20130085133A1, “ANTI-VIRAL TREATMENT AND ASSAY TO SCREENFOR ANTI-VIRAL AGENT” (Sourthern Research Institute Office of Commercialization …, priority 2010, published 2013).
